Assay results taken from patent US10174013B2, “Benzimidazole derivatives as kinase inhibitors” (SELVITA S.A., priority 2012, dated 2019).
Like-named read-outs stand apart in the source and are kept apart here.

How the values were obtained:
Pim-1 = Pim-1 (Homo sapiens (Human), UniProt P11309); experiment: ADP-Glo Kinase Assay, Pim-1; format: biochemical; details: 1 μM compound; for inhibition at 1 µM: read-out: Pim-1 % INH (1 μM)
Experimental: (§1) Compounds of the present invention were tested for their inhibitory activity against Pim-1, Pim-2, Pim-3, Flt3 wt, Flt3 ITD, CDK2/E and DYRK1. The testing of the compounds was carried out using the ADP-Glo™ Kinase Assay from Promega Corporation (Madison, Wis., USA).
(§2) The ADP-Glo™ Kinase Assay is a luminescent ADP detection assay to measure kinase activity by quantifying the amount of ADP produced during a kinase reaction. The kinase assay is performed in kinase assay buffer (5 mM MOPS, pH 7.5, 5 mM MgCl2, 0.4 mM EDTA, 1.5 mM DTT). Test samples initially dissolved in DMSO at 10 mM were diluted with the assay buffer to 1000 nM. A 30 μL volume/well of a mixture of substrates containing ATP (final ATP concentration in each kinase assay was equal to its apparent ATP Km).
(§3) The assay was performed in two steps: first, after the kinase reaction, an equal volume of ADP-Glo™ Reagent was added to terminate the kinase reaction and deplete the remaining ATP. Second, the Kinase Detection Reagent was added to simultaneously convert ADP to ATP and allowed the newly synthesized ATP to be measured using a luciferase/luciferin reaction. The luminescent signal generated was proportional to the ADP concentration produced and was correlated with kinase activity. A microplate spectrophotometer (Synergy 2 multi-mode microplate reader [BioTek]) was used for detecting the luminescence. The data was normalized and the percent of inhibition was obtained according to the following equation: […]

DYRK1 = DYRK1 (Homo sapiens (Human), UniProt Q13627); experiment: ADP-Glo Kinase Assay, DYRK1; format: biochemical; details: 1 μM compound; for inhibition at 1 µM: read-out: DYRK1A % INH (1 μM)
Experimental: as §1, §2, §3

MV4-11 cells = experiment: Growth inhibition, MTS assay, MV4-11; format: cell-based, Human; details: MTS cell viability, read-out: MV4-11 ED50
From the text: (§4) The following cell lines, were obtained and used in tests as outlined below: • Human myelomonocytic, biphenotypic leukemia MV4-11 cells (harboring a Flt3-ITD mutation); • Human Acute Myeloid Leukemia MOLM16 cells; • Human Acute Myeloid Leukemia MOLM13 cells (harboring a Flt3-ITD mutation); • Human Myeloid Leukemia KG-1 cells; • Human erythroleukemia HEL92 cells; • Human mantle cell lymphoma Jeko-1 cells; • Human hepatocellular carcinoma HepG2 cells; and • Human colon adenocarcinoma SW-480 cells.
(§5) The assays were carried out according to the following protocol, which is described as an example for the MV4-11 cells:
(§6) Ten thousand MV4-11 cells were inoculated into each well of a 96-well microplate (manufactured by Corning Corp.) using Iscove's MDM medium (culture medium) containing 10% fetal calf serum (FCS). The same day, a dimethyl sulfoxide (DMSO) solution of each test compound prepared in a concentration of 10 mmol/L was further diluted with DMSO to the desired concentrations (0.1, 0.5, 1, 2.5, 5 and 10 micromol/L), and the diluted solution was added to each well. The individual wells were further cultured in 5% carbon dioxide at 37° C. for 72 hours. […] Briefly, 10 μl MTS (3-(4,5-Dimethyl-2-thiazolyl)-5-(carboxymethoxyphenyl)-2-(4-sulfophenyl)-2H-tetrazolium was added to each well, and culturing was performed in 5% carbon dioxide at 37° C. for 2 hours. After this incubation and using a microplate spectrophotometer (Synergy 2 multi-mode microplate reader (BioTek)), the absorbance of each well was measured at 490 nm. The value for cells not incubated with a test compound was designated as 100%. By comparing these values with the absorbance difference obtained at the well in which each test compound was added, the cell viability (% viability) after treatment with the test compound was calculated.

HEL92 cells = experiment: Growth inhibition, MTS assay, HEL92; format: cell-based, Human; details: MTS cell viability, read-out: HEL92 ED50
From the text: as §4, §5, §6

HepG2 cells = experiment: Growth inhibition, MTS assay, HepG2; format: cell-based, Human; details: MTS cell viability, read-out: HepG2 ED50
From the text: as §4, §5, §6

FLT3wt = FLT3wt (Homo sapiens (Human), UniProt P36888); experiment: ADP-Glo Kinase Assay, Flt3 wt; format: biochemical; details: 1 μM compound
Sequence of FLT3wt (P36888 27-993): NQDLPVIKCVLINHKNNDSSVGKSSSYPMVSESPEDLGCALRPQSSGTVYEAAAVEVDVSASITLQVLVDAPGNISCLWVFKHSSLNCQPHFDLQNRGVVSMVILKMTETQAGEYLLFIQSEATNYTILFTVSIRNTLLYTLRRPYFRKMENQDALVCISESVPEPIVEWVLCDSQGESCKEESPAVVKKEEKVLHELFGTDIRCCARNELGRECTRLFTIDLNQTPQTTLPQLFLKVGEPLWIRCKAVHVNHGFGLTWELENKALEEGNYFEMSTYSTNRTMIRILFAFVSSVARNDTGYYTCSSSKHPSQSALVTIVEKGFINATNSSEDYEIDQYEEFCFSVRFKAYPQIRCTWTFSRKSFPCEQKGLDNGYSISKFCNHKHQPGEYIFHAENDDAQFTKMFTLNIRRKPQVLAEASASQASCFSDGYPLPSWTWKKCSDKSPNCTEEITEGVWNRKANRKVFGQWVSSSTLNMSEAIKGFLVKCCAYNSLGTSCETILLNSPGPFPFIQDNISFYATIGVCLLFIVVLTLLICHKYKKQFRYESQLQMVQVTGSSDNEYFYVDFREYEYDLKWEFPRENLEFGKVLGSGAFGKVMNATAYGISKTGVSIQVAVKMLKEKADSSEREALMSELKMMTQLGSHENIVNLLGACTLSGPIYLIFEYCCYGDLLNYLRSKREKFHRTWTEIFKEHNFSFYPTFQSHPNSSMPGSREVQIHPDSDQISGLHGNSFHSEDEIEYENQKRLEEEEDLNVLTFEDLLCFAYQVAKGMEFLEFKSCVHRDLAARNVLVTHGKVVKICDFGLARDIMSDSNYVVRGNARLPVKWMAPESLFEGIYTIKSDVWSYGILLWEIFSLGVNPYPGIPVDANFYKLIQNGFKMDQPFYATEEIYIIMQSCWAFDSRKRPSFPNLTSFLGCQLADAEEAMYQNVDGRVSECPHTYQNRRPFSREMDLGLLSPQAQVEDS
Experimental: as §1, §2, §3

CDK2/E = CDK2/E (Homo sapiens (Human), UniProt P24941); experiment: ADP-Glo Kinase Assay, CDK2/E; format: biochemical; details: 1 μM compound
Experimental: as §1, §2, §3

Sequence of Pim-1 (P11309 whole entry): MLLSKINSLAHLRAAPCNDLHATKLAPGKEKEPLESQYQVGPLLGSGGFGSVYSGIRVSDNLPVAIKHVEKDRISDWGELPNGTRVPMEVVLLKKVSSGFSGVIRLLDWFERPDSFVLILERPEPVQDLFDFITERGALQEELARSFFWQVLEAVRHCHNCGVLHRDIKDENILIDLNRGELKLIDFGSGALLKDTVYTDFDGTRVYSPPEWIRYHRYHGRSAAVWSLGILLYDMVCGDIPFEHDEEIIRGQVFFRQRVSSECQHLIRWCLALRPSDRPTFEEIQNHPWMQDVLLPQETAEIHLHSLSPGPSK

| Molecule | Pim-1 % INH (1 μM) (Pim-1) | DYRK1A % INH (1 μM) (DYRK1) | IC50 (MV4-11 cells; 72 hours) | IC50 (HEL92 cells; 72 hours) | IC50 (HepG2 cells; 72 hours) | Flt3wt % INH (1 μM) (FLT3wt) | inhibition at 1 µM (Pim-1) | inhibition at 1 µM (DYRK1) | IC50 (MV4-11 cells; Homo sapiens, MV4-11, 72 h) | IC50 (HEL92 cells; Homo sapiens, 72 h) | IC50 (HepG2 cells; Homo sapiens, HepG2, 72 h) | CDK2/E % INH (1 μM) (CDK2/E) | inhibition at 1 µM (FLT3wt; read-out: Flt3wt % INH (1 μM)) |
| --- | --- | --- | --- | --- | --- | --- | --- | --- | --- | --- | --- | --- | --- |
| CC(C)n1c(N[C@@H]2CCCNC2)nc2c([N+](=O)[O-])c(Br)c(Br)cc21 [Example 1CA] | 77% | 64% | 2600 nM | 9700 nM | 1800 nM |  |  |  |  |  |  |  |  |
| CCCn1c(N2CC[C@@H](N)C2)nc2c([N+](=O)[O-])c(Br)c(Br)cc21 [Example 1CM] | >95% | 95% | 800 nM | 5200 nM | 2600 nM | 26% |  |  |  |  |  |  |  |
| CC(C)n1c(N2CCNC(CO)C2)nc2c([N+](=O)[O-])c(Br)c(Br)cc21 (centres unmarked) [Example 22AD, {4-[5,6-dibromo-4-nitro-1-(propan-2-yl)-1H-1,3-benzodiazol-2-yl]piperazin-2-yl}methanol] |  |  |  |  |  |  | > 95% | 31% | 700 nM | 6200 nM | 1200 nM |  |  |
| CCn1c(N2CCNCC2C)nc2c([N+](=O)[O-])c(Cl)c(Cl)cc21 (centres unmarked) [Example 1DA] | 91% | 36% | 500 nM | 1100 nM | 900 nM |  |  |  |  |  |  |  |  |
| CC(C)n1c(N2CCC(N)CC2)nc2c([N+](=O)[O-])c(Br)c(Br)cc21 [Example 1CP] | >95% | 44% | 600 nM | 5800 nM | 1200 nM | 32% |  |  |  |  |  | 39% |  |
| O=[N+]([O-])c1c(Br)c(Br)cc2c1nc(C1CCNCC1)n2CC1CCNCC1 [Example 27A, 5,6-dibromo-4-nitro-2-(piperidin-4-yl)-1-(piperidin-4-ylmethyl)-1H-1,3-benzodiazole] |  |  |  |  |  |  | 56% |  |  |  |  |  |  |
| CC(C)n1c(N2CCNCC2)nc2c([N+](=O)[O-])c(Br)c(F)cc21 [Example 1CL] | 82% | 45% | 1000 nM | 2400 nM | 1500 nM |  |  |  |  |  |  |  |  |
| 5-bromo-6-methyl-4-nitro-2-(piperazin-1-yl)-1-(propan-2-yl)-1H-1,3-benzodiazole [Example 4B] | >95% | 51% | 1200 nM | 4100 nM | 1800 nM |  |  |  |  |  |  |  |  |
| CC[C@H]1CNCCN1c1nc2c([N+](=O)[O-])c(Br)c(Br)cc2n1C(C)C [Example 1EA] |  |  |  |  |  |  | > 95% |  |  |  |  |  |  |
| CCn1c(N2CCNCC2)nc2c([N+](=O)[O-])c(Cl)c(Cl)cc21 [Example 1CN] | 76% | 27% | 3300 nM | 9400 nM | 4500 nM |  |  |  |  |  |  |  |  |
| CC(C)n1c(N2CCNCC2CO)nc2c([N+](=O)[O-])c(Br)c(Br)cc21 (centres unmarked) [Example 1DN] | >95% | 38% | 500 nM | 4500 nM | 900 nM | 55% |  |  |  |  |  |  |  |
| CC(C)n1c(N2CC(N)C2)nc2c([N+](=O)[O-])c(Br)c(Br)cc21 [Example 1CX] |  |  |  |  |  |  | > 95% | 73% | 1200 nM | 4100 nM | 3100 nM |  | 44% |
| N[C@@H]1CCN(c2nc3c([N+](=O)[O-])c(Br)c(Br)cc3n2CCCO)C1 [Example 1DF] | >95% | 55% | 2000 nM |  | 3700 nM | 18% |  |  |  |  |  |  |  |
| CCn1c(NC2CCC(N)CC2)nc2c([N+](=O)[O-])c(Br)c(Br)cc21 (centres unmarked) [Example 1DO] | 93% |  | 4300 nM |  | 2200 nM |  |  |  |  |  |  |  |  |
